# Measurements from US20070059364A1, “Active substance combination comprising a compound with npy receptor affinity and a compound with 5-ht6 receptor affinity” (Laboratorios Del Dr. Esteve S.A., priority 2003, published 2007).
row,SMILES,melting point
1,"O=S(=O)(CCc1cccc2ccccc12)Nc1cccc2ccn(CCN3CCCC3)c12 [Example 8g, 2-(naphth-1-yl)-N-(1-(2-(pyrrolidin-1-yl)ethyl)-1H-indol-7-yl)ethansulfonamide]",46 to 49 °C
2,"CN(C)CCn1ccc2cc(NS(=O)(=O)c3ccc(Cl)s3)ccc21 [Example 9e, N-[1-(2-dimethylaminoethyl)-1H-indole-5-yl]-5-chlorothiophene-2-sulfonamide]",145 to 147 °C
3,"CN(C)CCn1ccc2cc(NS(=O)(=O)c3c(Cl)nc4sccn34)ccc21 [Example 11e, N-[1-(2-dimethylaminoethyl)-1H-indole-5-yl]-6-chloroimidazo[2,1-b]thiazole-5-sulfonamide]",50 to 52 °C
4,"CN1CCC(c2c[nH]c3ccc(NS(=O)(=O)c4cccc5ccccc45)cc23)CC1 [Example 12c, N-[3-(1-methylpiperidin-4-yl)-1H-indol-5-yl]naphthalene-1-sulphonamide]",254 to 256 °C
5,"CN(C)CCn1ccc2cc(NS(=O)(=O)c3cc(Cl)cc(Cl)c3)ccc21 [Example 12e, N-[1-(2-dimethylaminoethyl)-1H-indole-5-yl]-3,5-dichlorobenzenesulfonamide]",124 to 126 °C
6,"O=S(=O)(Nc1ccc2ccn(CCN3CCCC3)c2c1)c1c(Cl)nc2sccn12 [Example 12f, 6-Chloro-N-[1-[2-(pyrrolidin-1-yl)ethyl]-1H-indol-6-yl]-imidazo[2,1-b]thiazole-5-sulfonamide]",53 to 57 °C
7,"CN1CCC(c2c[nH]c3ccc(NS(=O)(=O)c4cccc5ccccc45)cc23)CC1.Cl [Example 13c, N-[3-(1-methylpiperidin-4-yl)-1H-indol-5-yl]naphthalene-1-sulphonamide hydrochloride]",212 °C (dec.)
8,"CN(C)CCn1ccc2cc(NS(=O)(=O)c3cccc(Br)c3)ccc21 [Example 13e, N-[1-(2-dimethylaminoethyl)-1H-indole-5-yl]-3-bromobenzenesulfonamide]",114 to 116 °C
9,"O=S(=O)(Nc1ccc2ccn(CCN3CCCC3)c2c1)c1ccc(-c2ccccc2)cc1 [Example 13f, 4-Phenyl-N-(1-(2-(pyrrolidin-1-yl)ethyl)-1H-indol-6-yl)-benzenesulfonamide]",178 to 181 °C
10,"CN1CCC(c2c[nH]c3ccc(NS(=O)(=O)c4ccc(Cl)s4)cc23)CC1 [Example 14c, N-[3-(1-methylpiperidin-4-yl)-1H-indol-5-yl]-5-chlorothiophene-2-sulphonamide]",284 °C (dec.)
11,"CN(C)CCn1ccc2cc(NS(=O)(=O)c3cccc([N+](=O)[O-])c3)ccc21 [Example 14e, N-[1-(2-dimethylaminoethyl)-1H-indole-5-yl]-3-nitrobenzenesulfonamide]",138 to 140 °C
12,"CN1CCC(c2c[nH]c3ccc(NS(=O)(=O)c4ccc(-c5ccccc5)cc4)cc23)CC1 [Example 15c, N-[3-(1-methylpiperidin-4-yl)-1H-indol-5-yl]-4-phenylbenzenesulphonamide]",247 to 248 °C
13,"CN(C)CCn1ccc2cc(NS(=O)(=O)Cc3ccccc3)ccc21 [Example 15e, N-[1-(2-dimethylaminoethyl)-1H-indole-5-yl]-1-phenylmethanesulfonamide]",163 to 166 °C
14,"O=S(=O)(Nc1ccc2ccn(CCN3CCCC3)c2c1)c1ccc(Oc2ccccc2)cc1 [Example 15f, 4-Phenoxy-N-(1-(2-(pyrrolidin-1-yl)ethyl)-1H-indol-6-yl)-benzenesulfonamide]",59 to 62 °C
15,"CN1CCC(c2c[nH]c3ccc(NS(=O)(=O)c4cccc5cccnc45)cc23)CC1 [Example 16c, N-[3-(1-methylpiperidin-4-yl)-1H-indol-5-yl]quinoline-8-sulphonamide]",280 °C (dec.)
16,"O=S(=O)(Nc1ccc2c(ccn2CCN2CCCC2)c1)c1ccc2ccccc2c1 [Example 16e, N-[1-(2-pyrrolidine-1-yl-ethyl)-1H-indole-5-yl]-naphthalene-2-sulfonamide]",138 to 140 °C
17,"CCN(CC)CCc1c[nH]c2ccc(NS(=O)(=O)c3ccc4ccccc4c3)cc12 [Example 17c, N-[3-(2-diethylaminoethyl)-1H-indol-5-yl]naphthalene-2-sulphonamide]",172 to 173 °C
18,"O=S(=O)(Nc1ccc2c(ccn2CCN2CCCC2)c1)c1cccc2ccccc12 [Example 17e, N-[1-(2-pyrrolidine-1-yl-ethyl)-1H-indole-5-yl]-naphthalene-1-sulfonamide]",186 to 189 °C
19,"Cc1c(S(=O)(=O)Nc2ccc3c(ccn3CCN3CCCC3)c2)sc2ccc(Cl)cc12 [Example 18e, N-[1-(2-pyrrolidine-1-yl-ethyl)-1H-indole-5-yl]-5-chloro-3-methylbenzo[b]thiophene-2-sulfonamide]",156 to 158 °C
20,"Cc1c(S(=O)(=O)Nc2ccc3[nH]cc(CN4CCN(C)CC4)c3c2)sc2ccc(Cl)cc12 [Example 19c, N-[3-(4-methylpiperazin-1-yl)methyl-1H-indol-5-yl]-5-chloro-3-methylbenzo[b]thiophene-2-sulphonamide]",230 °C (dec.)

# Further lines, results first:
row,melting point,SMILES
1,120 to 123 °C,"CN(C)CCn1ccc2cc(NS(=O)(=O)c3cc(Cl)c(Cl)s3)ccc21 [Example 20e, N-[1-(2-dimethylaminoethyl)-1H-indole-5-yl]-4,5-dichlorothiophene-2-sulfonamide]"
2,175 °C (dec.),"CC(=O)c1ccc(S(=O)(=O)Nc2ccc3c(ccn3CCN(C)C)c2)cc1 [Example 21e, N-[1-(2-dimethylaminoethyl)-1H-indole-5-yl]-4-acetylbenzenesulfonamide]"
3,114 to 117 °C,"CN(C)CCn1ccc2cc(NS(=O)(=O)c3ccc(Br)cc3)ccc21 [Example 22e, N-[1-(2-dimethylaminoethyl)-1H-indole-5-yl]-4-bromobenzenesulfonamide]"
4,141 to 144 °C,"COc1ccc(S(=O)(=O)Nc2ccc3c(ccn3CCN(C)C)c2)cc1 [Example 23e, N-[1-(2-dimethylaminoethyl)-1H-indole-5-yl]-4-methoxybenzenesulfonamide]"
5,60 to 64 °C,"CN(C)CCn1ccc2cc(NS(=O)(=O)c3ccc([N+](=O)[O-])cc3)ccc21 [Example 25e, N-[1-(2-dimethylaminoethyl)-1H-indole-5-yl]-4-nitrobenzenesulfonamide]"
6,138 to 140 °C,"CN(C)CCn1ccc2cc(NS(=O)(=O)c3ccc(F)cc3)ccc21 [Example 26e, N-[1-(2-dimethylaminoethyl)-1H-indole-5-yl]-4-fluorobenzenesulfonamide]"
7,68 to 70 °C,"CCN(CC)CCn1ccc2cc(NS(=O)(=O)c3c(Cl)nc4sccn34)ccc21 [Example 27e, N-[1-(2-diethylaminoethyl)-1H-indole-5-yl]-6-chloroimidazo[2,1-b]thiazole-5-sulfonamide]"
8,148 to 152 °C,"Cc1c(S(=O)(=O)Nc2ccc3[nH]cc(CN(C)C)c3c2)sc2ccc(Cl)cc12 [Example 30c, N-[3-dimethylaminomethyl-1H-indol-5-yl]-5-chloro-3-methylbenzo[b]thiophene-2-sulphonamide]"
9,133 to 135 °C,"CCN(CC)CCn1ccc2cc(NS(=O)(=O)c3cccc4ccccc34)ccc21 [Example 30e, N-(1-(2-(diethylamino)ethyl)-1H-indol-5-yl)-naphthalene-1-sulfonamide]"
10,203 to 205 °C,"Cc1c(S(=O)(=O)Nc2ccc3c(c2)cc(C)n3CCN(C)C)sc2ccc(Cl)cc12 [Example 32e, 5-chloro-N-(1-(2-(dimethylamino)ethyl)-2-methyl-1H-indol-5-yl)-3-methylbenzo[b]thiophene-2-sulfonamide]"
11,183 to 184 °C,"Cc1cc2cc(NS(=O)(=O)c3cccc4ccccc34)ccc2n1CCN(C)C [Example 34e, N-(1-(2-(dimethylamino)ethyl)-2-methyl-1H-indol-5-yl)-naphthalene-1-sulfonamide]"
12,182 to 183 °C,"Cc1cc2cc(NS(=O)(=O)c3c(Cl)nc4sccn34)ccc2n1CCN(C)C [Example 35e, 6-chloro-N-(1-(2-(dimethylamino)ethyl)-2-methyl-1H-indol-5-yl)imidazo[2,1-b]thiazole-5-sulfonamide]"
13,176 to 177 °C,"Cc1cc2cc(NS(=O)(=O)c3ccc(-c4ccccc4)cc3)ccc2n1CCN(C)C [Example 36e, N-(1-(2-(dimethylamino)ethyl)-2-methyl-1H-indol-5-yl)-4-phenylbenzenesulfonamide]"
14,142 to 144 °C,"Cc1c(S(=O)(=O)Nc2ccc3[nH]cc(C4CCN5CCCC5C4)c3c2)sc2ccc(Cl)cc12 (stereo not shown) [Example 38c, N-[3-(octahydroindolizin-7-yl)-1H-indol-5-yl]-5-chloro-3-methylbenzo[b]thiophene-2-sulphonamide]"
15,147 to 149 °C,"Cc1cc2cc(NS(=O)(=O)c3ccc(Oc4ccccc4)cc3)ccc2n1CCN(C)C [Example 38e, N-(1-(2-(dimethylamino)ethyl)-2-methyl-1H-indol-5-yl)-4-phenoxy-benzenesulfonamide]"
16,147 to 149 °C,"Cc1cc2cc(NS(=O)(=O)c3cc(Cl)cc(Cl)c3)ccc2n1CCN(C)C [Example 39e, 3,5-dichloro-N-(1-(2-(dimethylamino)ethyl)-2-methyl-1H-indol-5-yl)-benzenesulfonamide]"
17,167 to 169 °C,"Cc1cc2cc(NS(=O)(=O)c3csc4ccccc34)ccc2n1CCN(C)C [Example 40e, N-(1-(2-(dimethylamino)ethyl)-2-methyl-1H-indol-5-yl)benzo[b]thiophene-3-sulfonamide]"
18,99 to 102 °C,"CN1CCN(Cc2c[nH]c3ccc(NS(=O)(=O)Cc4ccccc4)cc23)CC1 [Example 41c, N-[3-(4-methylpiperazin-1-yl)methyl-1H-indol-5-yl]-α-toluenesulphonamide]"
19,62 to 75 °C,"CCN(CC)CCn1ccc2cc(NS(=O)(=O)c3csc4ccccc34)ccc21 [Example 41e, N-(1-(2-(diethylamino)ethyl)-1H-indol-5-yl)benzo[b]thiophene-3-sulfonamide]"
20,128 to 130 °C,"CCN(CC)CCCc1c[nH]c2ccc(NS(=O)(=O)c3ccc4ccccc4c3)cc12 [Example 42c, N-[3-(3-diethylaminopropyl)-1H-indol-5-yl]naphthalene-2-sulphonamide]"
